Measured values reported in ChEMBL document CHEMBL1201862, “PubChem BioAssay data set” (2004).
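How tested: cells in 96-well plates exposed to compound for 48 hours at five concentrations. GI50 is the concentration that inhibits growth by half.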 The source made the active and inactive calls. No stated cut-off is given here; in the data, active = GI50 up to about 1.1 µM and inactive = higher.

Assays:
Test in all cases: NCI-60 cell line screen, 48 h
786-0 = tested on: 786-0
A498 = tested on: A498
A549 = tested on: A549
ACHN = tested on: ACHN
BT-549 = tested on: BT-549
CAKI-1 = tested on: CAKI-1
CCRF-CEM = tested on: CCRF-CEM
DU-145 = tested on: DU-145
EKVX = tested on: EKVX
HCC 2998 = tested on: HCC 2998
HCT-116 = tested on: HCT-116
HCT-15 = tested on: HCT-15
HL-60 = tested on: HL-60
HOP-62 = tested on: HOP-62
HOP-92 = tested on: HOP-92
HT-29 = tested on: HT-29
Hs-578T = tested on: Hs-578T
IGROV-1 = tested on: IGROV-1
K562 = tested on: K562
KM12 = tested on: KM12
LOX IMVI = tested on: LOX IMVI
M14 = tested on: M14
MCF7 = tested on: MCF7
MDA-MB-231 = tested on: MDA-MB-231
MDA-MB-435 = tested on: MDA-MB-435
MDA-N = tested on: MDA-N
Malme-3M = tested on: Malme-3M
NCI-H23 = tested on: NCI-H23
NCI-H460 = tested on: NCI-H460
NCI-H522 = tested on: NCI-H522
NCI/ADR-RES = tested on: NCI/ADR-RES
OVCAR-3 = tested on: OVCAR-3
OVCAR-4 = tested on: OVCAR-4
OVCAR-5 = tested on: OVCAR-5
OVCAR-8 = tested on: OVCAR-8
PC-3 = tested on: PC-3
RPMI-8226 = tested on: RPMI-8226
RXF 393 = tested on: RXF 393
SF-268 = tested on: SF-268
SF-295 = tested on: SF-295
SK-MEL-28 = tested on: SK-MEL-28
SK-MEL-2 = tested on: SK-MEL-2
SK-MEL-5 = tested on: SK-MEL-5
SK-OV-3 = tested on: SK-OV-3
SN12C = tested on: SN12C
SNB-19 = tested on: SNB-19
SNB-75 = tested on: SNB-75
SR = tested on: SR
SW-620 = tested on: SW-620
T47D = tested on: T47D
TK-10 = tested on: TK-10
U-251 = tested on: U-251
UACC-257 = tested on: UACC-257
UACC-62 = tested on: UACC-62
UO-31 = tested on: UO-31
COLO 205 = tested on: COLO 205
MOLT-4 = tested on: MOLT-4
NCI-H226 = tested on: NCI-H226
SF-539 = tested on: SF-539

Measured: GI50

c1ccc2c(C3CCN(CCN4CCOCC4)C3)c[nH]c2c1 (stereo not drawn)
inactive: 786-0 > 100 µM | A498 > 100 µM | A549 > 100 µM | ACHN > 100 µM | BT-549 > 100 µM | CAKI-1 > 100 µM | CCRF-CEM > 100 µM | DU-145 > 100 µM | EKVX > 100 µM | HCC 2998 47 µM | HCT-116 > 100 µM | HL-60 > 100 µM | HOP-62 > 100 µM | HOP-92 > 100 µM | HT-29 > 100 µM | Hs-578T > 100 µM | IGROV-1 > 100 µM | K562 > 100 µM | KM12 > 100 µM | LOX IMVI > 100 µM | M14 > 100 µM | MCF7 > 100 µM | MDA-MB-231 > 100 µM | MDA-MB-435 > 100 µM | MDA-N > 100 µM | Malme-3M > 100 µM | NCI-H23 > 100 µM | NCI-H460 > 100 µM | NCI-H522 > 100 µM | NCI/ADR-RES > 100 µM | OVCAR-3 > 100 µM | OVCAR-4 > 100 µM | OVCAR-5 > 100 µM | OVCAR-8 > 100 µM | PC-3 > 100 µM | RPMI-8226 > 100 µM | RXF 393 > 100 µM | SF-268 > 100 µM | SF-295 > 100 µM | SK-MEL-28 > 100 µM | SK-MEL-2 > 100 µM | SK-MEL-5 > 100 µM | SK-OV-3 > 100 µM | SN12C > 100 µM | SNB-19 > 100 µM | SNB-75 > 100 µM | SR > 100 µM | SW-620 > 100 µM | T47D > 100 µM | TK-10 > 100 µM | U-251 > 100 µM | UACC-257 > 100 µM | UACC-62 > 100 µM | UO-31 > 100 µM
> 100 µM: HCT-15

CC(=O)OC12CC[N+]3(C)CCCCC3C1=Nc1ccccc12 (stereo not drawn)
> 100 µM: HCT-15
inactive: 786-0 > 100 µM | A498 80.2 µM | A549 40.5 µM | ACHN > 100 µM | BT-549 > 100 µM | CAKI-1 > 100 µM | CCRF-CEM > 100 µM | COLO 205 61 µM | DU-145 > 100 µM | EKVX 17.4 µM | HCT-116 > 100 µM | HL-60 > 100 µM | HOP-62 > 100 µM | HOP-92 > 100 µM | HT-29 63.8 µM | Hs-578T > 100 µM | IGROV-1 > 100 µM | K562 > 100 µM | KM12 82.8 µM | LOX IMVI > 100 µM | M14 > 100 µM | MCF7 > 100 µM | MDA-MB-231 > 100 µM | MDA-MB-435 > 100 µM | MDA-N > 100 µM | MOLT-4 > 100 µM | Malme-3M > 100 µM | NCI-H226 > 100 µM | NCI-H23 > 100 µM | NCI-H460 > 100 µM | NCI-H522 > 100 µM | NCI/ADR-RES > 100 µM | OVCAR-3 > 100 µM | OVCAR-4 > 100 µM | OVCAR-5 > 100 µM | OVCAR-8 > 100 µM | PC-3 > 100 µM | RPMI-8226 > 100 µM | RXF 393 > 100 µM | SF-268 > 100 µM | SF-295 > 100 µM | SF-539 > 100 µM | SK-MEL-28 > 100 µM | SK-MEL-2 > 100 µM | SK-MEL-5 > 100 µM | SK-OV-3 > 100 µM | SN12C > 100 µM | SNB-19 > 100 µM | SNB-75 > 100 µM | SR > 100 µM | SW-620 > 100 µM | T47D > 100 µM | TK-10 > 100 µM | U-251 > 100 µM | UACC-257 > 100 µM | UACC-62 > 100 µM | UO-31 > 100 µM
